Structures are written as SMILES.

The series in a line: solvent given as SMILES.

For `CCCCCCC1(CCCCCC)c2cc(-c3nc(-c4ccc5c(c4)C(CCCCCC)(CCCCCC)c4cc(N6c7ccccc7Sc7ccccc76)ccc4-5)nc(-c4ccc5c(c4)C(CCCCCC)(CCCCCC)c4cc(N6c7ccccc7Sc7ccccc76)ccc4-5)n3)ccc2-c2ccc(N3c4ccccc4Sc4ccccc43)cc21`, the emission maximum came out at 626 nm (in C1CCOC1), 462 nm (in CCCCCC), 529 nm (in Cc1ccccc1) and 650 nm (in ClCCl).

Take `CCCCCCCCCCCCn1cccc1/C=C/c1ccc(/C=C/c2cccn2CCCCCCCCCCCC)cc1`: the emission maximum (in Cc1ccccc1) is on record as 443 nm.

Regarding `O=c1oc2cc3ccccc3cc2nc1-c1ccccc1`, the emission maximum by setting is: (in CC#N) 538 nm; (in CCCCCC) 500 nm; (in CO) 548 nm; (in c1ccccc1) 514 nm.

Consider `COCCC1=Cc2nc1ccc1[nH]c(cc1CCOC)c1nc(c(N3C(=O)CCCC3=O)cc3[nH]c2cc3CCOC)C(CCOC)=C1`, for which, for the setting “in Cc1ccccc1”, the emission maximum was 646 nm.

Molecule `CCOCCOCCOC(=O)/C=C/C1=CC2=C(c3c(C)cc(C)cc3C)c3cccn3[B-](F)(F)[N+]2=C1` gave an emission maximum (in ClCCl) of 567 nm.

For the setting “in ClCCl”, `COc1c2ccccc2c(OC)c2c(C#CC(C)(C)C)c3cc4ccccc4cc3c(C#CC(C)(C)C)c12` returned an emission maximum of 682 nm.

`CCCC[Si](C)(C)c1cccc2ccccc12`: the emission maximum (in C1CCCCC1) is listed as 329 nm.

`c1ccc(-c2nc(-c3ccccn3)sc2N(c2ccccc2)c2ccccc2)cc1` yielded an emission maximum (in ClC(Cl)Cl) of 482 nm.

As to `CC1=N/C(=C\c2cccc(N(C)C)c2)C(=O)N1CCO`, the emission maximum amounted to 585 nm (in C1CCOC1), 656 nm (in CC#N) and 506 nm (in CCCCCC).

`CC1(C)C(/C=C2\C(=O)C(/C=C3\Nc4ccccc4C3(C)C)=C2[O-])=[NH+]c2ccccc21`: under “in ClC(Cl)Cl”, the emission maximum is listed as 670 nm.

In turn, `Cc1ccc(-n2c(-c3ccccc3NS(=O)(=O)c3ccc(C)cc3)nc3c4ccccc4c4ccccc4c32)cc1` showed an emission maximum (in Cc1ccccc1) of 365 nm.

Regarding `CN1C(=CC2=C([S-])C(=Cc3sc4ccccc4[n+]3C)C2=O)C(C)(C)c2ccccc21`, the emission maximum (in ClC(Cl)Cl) is reported as 676 nm.

The molecule `CCCCN(CCCC)c1ccc(C#Cc2cc(C#Cc3ccc(N(CCCC)CCCC)cc3)c(C#Cc3ccc(C(F)(F)F)cc3)cc2C#Cc2ccc(C(F)(F)F)cc2)cc1` showed an emission maximum (in ClCCl) of 541 nm and an emission maximum (in c1ccccc1) of 493 nm.

`O=Cc1ccc(C=C(c2ccccc2)c2ccccc2)cc1` came in with an emission maximum (in C1CCOC1) of 383 nm.

As for `CC(C)(C)c1ccc(-c2ccc(-c3c4c(nc5ccccc35)-c3cc5c(cc3CC4)-c3nc4ccccc4c(-c4ccc(-c6ccc(C(C)(C)C)cc6)cc4)c3CC5)cc2)cc1`, the emission maximum (in ClC(Cl)Cl) stood at 388 nm.

As for `c1ccc2c(c1)[nH]c1ccccc12`, the emission maximum (in CC#N) was 340 nm, the emission maximum (in CCCCCC) stood at 332 nm and the emission maximum (in CCO) is given as 339 nm.

Molecule `CCCCCCc1ccc(/C=C/c2ccc(CCCCCC)s2)s1` had an emission maximum (in Cc1ccccc1) of 416 nm.

Where the note is “in ClCCl”, `COc1cc2c(cc1OC)C1=C[C@H](c3ccc(C)cc3)C3(C(C#N)=C(C#N)N1CC2)c1ccccc1-c1ccccc13` yielded an emission maximum of 403 nm.

Regarding `c1ccc(-n2c3ccccc3c3c2c2ccccc2n3-c2ccccc2)cc1`, for the setting “in Cc1ccccc1”, the emission maximum is 376 nm.

With `CCC1(CC)c2ccccc2-c2c1c1c(c3c2C(CC)(CC)c2cc(/C=C/c4cccs4)ccc2-3)C(CC)(CC)c2cc(/C=C/c3cccs3)ccc2-1`, the emission maximum (in C1CCOC1) turned out to be 397 nm.

Take `CCCCCCCCCCCCCCCCN(CCCCCCCCCCCCCCCC)c1ccc(/C=C/c2cc[n+](Cc3cc(C[n+]4ccc(/C=C/c5ccc(N(CCCCCCCCCCCCCCCC)CCCCCCCCCCCCCCCC)cc5)cc4)cc(C[n+]4ccc(/C=C/c5ccc(N(CCCCCCCCCCCCCCCC)CCCCCCCCCCCCCCCC)cc5)cc4)c3)cc2)cc1`: the emission maximum was 578 nm (in C1COCCO1); 613 nm (in CC(C)O); 630 nm (in CCCCCC); 589 nm (in CCCCCCCCO); 612 nm (in CCCCO); 617 nm (in CCCO). Moreover, the emission maximum came out at 621 nm (in CCO); 624 nm (in CO); 615 nm (in CS(C)=O); 556 nm (in Cc1ccc(C)cc1); 559 nm (in Cc1ccccc1); 587 nm (in ClC(Cl)Cl). Also, the emission maximum is, setting by setting: (in ClCCl) 606 nm; (in c1ccccc1) 562 nm.

Regarding `CN(C)c1ccc(/C=C/c2ccc([N+](=O)[O-])c(O)c2)cc1`, the emission maximum is, setting by setting: (in C1CCCCC1) 529 nm; (in C1COCCO1) 633 nm; (in CCCCCCC) 523 nm; (in Cc1ccccc1) 605 nm.

`O=S1(=O)c2ccc(-c3ccc(-n4c5ccccc5c5ccccc54)cc3)cc2C2(c3ccccc3-c3ccccc32)c2cc(-c3ccc(-n4c5ccccc5c5ccccc54)cc3)ccc21`: the emission maximum by setting is: (in CC(C)=O) 443.88 nm; (in CCCCCC) 400.18 nm; (in CN(C)C=O) 455.8 nm; (in Cc1ccccc1) 396.57 nm; (in ClCCl) 432 nm.

Where the note is “in ClCCl”, `CCCCC(CC)Cn1c2cc(C#N)ccc2c2ccc(C#Cc3ccc4ccc5cccc6ccc3c4c56)cc21` (stereo unspecified) displayed an emission maximum of 420 nm.

For the setting “in Cc1ccccc1”, `CC(C)(C)c1ccc2c(c1)B1c3cc(C(C)(C)C)ccc3Oc3cc(N4c5ccccc5C(C)(C)c5ccccc54)cc(c31)O2` came in with an emission maximum of 458 nm.

In turn, `COC(=O)C1=C(C(=O)OC)C2(c3ccccc3-c3c(Br)cc(Br)cc32)C2(/C=C/c3ccccc3)c3cc(OC)c(OC)cc3CCN12` (stereo unspecified) gave an emission maximum (in ClCCl) of 491 nm.

In the case of `O=C1/C(=C\c2ccc(N(c3ccccc3)c3ccccc3)cc2)S(=O)(=O)c2ccccc21`, the emission maximum by setting is: (in C1CCOC1) 630 nm; (in C1COCCO1) 600 nm; (in CC#N) 518 nm; (in CC(C)=O) 540 nm; (in CCOC(C)=O) 617 nm; (in CN(C)C=O) 520 nm. Also, the emission maximum was 597 nm (in CO); 553 nm (in CS(C)=O); 587 nm (in Cc1ccccc1); 626 nm (in ClC(Cl)Cl); 631 nm (in ClCCl).

In the case of `c1cc2c3c(cccc3c1)-c1cc3c(ccc4ccccc43)cc1-2`, the emission maximum (in CCCCCCC) is 410 nm.

Molecule `CCCCCCOc1cc(N(CC)CC)ccc1/C=C/C(=C(C#N)C#N)c1ccc(N(c2ccccc2)c2ccccc2)cc1` showed an emission maximum (in ClCCl) of 595 nm.

Take `COc1cc(-c2nc3c4cccnc4c4ncccc4c3[nH]2)c(OC)cc1/C=C/c1nc2ccccc2[nH]1`: the emission maximum reads like this: (in C1CCOC1) 443 nm; (in CC#N) 457 nm; (in CO) 461 nm; (in ClCCl) 452 nm.

In turn, `c1ccc2c(c1)-c1ccccc1C21c2ccccc2-c2ccncc21` showed an emission maximum (in CC1CCCO1) of 348 nm.

For `CN(C)c1ccc(/C=C/C=C/c2ccc([N+](=O)[O-])c(O)c2)cc1`, the emission maximum is recorded as 530 nm (in C1CCCCC1); 686 nm (in C1CCOC1); 634 nm (in C1COCCO1); 523 nm (in CCCCCCC); 609 nm (in Cc1ccccc1).

Where the note is “in CO”, `CC1(C)C(/C=C/C2=C(Oc3ccc(CCN=C=S)cc3I)C(=C/C=C3/N(CCCS(=O)(=O)[O-])c4ccccc4C3(C)C)/CCC2)=[N+](CCCS(=O)(=O)[O-])c2ccccc21` had an emission maximum of 796 nm.

On to `O=S1(=O)C(c2cccs2)=C(c2cccs2)c2ccccc21`, for which the emission maximum (in C1CCOC1) amounted to 432 nm.

In the case of `Cc1cc(=O)oc2ccc3ccc(-c4cn(Cc5ccccc5)nn4)cc3c12`, the emission maximum (in CCO) is listed as 420 nm.

Turning to `CC(C)c1cccc(C(C)C)c1N1C(=O)c2cccc3c(Oc4ccccc4)ccc(c23)C1=O`, the emission maximum (in ClCCl) was 425 nm.

As to `COc1cc2c(cc1F)c(=O)c1cc(F)c(OC)cc1n2C(C)C`, for the setting “in CCO”, the emission maximum was 425 nm.

For `CC(C)(C)c1ccc2c(c1)c1cc(C(C)(C)C)ccc1n2-c1ccc2c(c1)C(=O)c1ccc(-n3c4ccc(C(C)(C)C)cc4c4cc(C(C)(C)C)ccc43)cc1C2=O`, the emission maximum runs as follows: (in Cc1ccccc1) 602 nm; (in c1ccc2c(c1)c1ccccc1n2-c1ccc(-c2ccc(-n3c4ccccc4c4ccccc43)cc2)cc1) 575 nm.

`Cc1cccc2cc(-c3cc4cccc(C)c4oc3=O)oc12`: the emission maximum by setting is: (in CC#N) 451 nm; (in CCOC(C)=O) 436 nm; (in CS(C)=O) 456 nm; (in Cc1ccccc1) 436 nm; (in O) 488 nm.

The molecule `CCCCn1c(-c2ccc(-c3ccc(-c4ccc(-c5n(CCCC)c6ccccc6[n+]5CCCC)cc4)cc3)cc2)[n+](CCCC)c2ccccc21` showed an emission maximum (in O) of 397 nm.

For `Oc1cc(-c2cccs2)ccc1-c1nc2ccccc2s1`, the emission maximum reads like this: (in CCO) 408 nm; (in ClCCl) 515 nm; (in O) 517 nm.

Under “in C1CCCCC1”, `CC(C)(C)[Si](C)(C)c1cccc2ccccc12` showed an emission maximum of 329 nm.

Molecule `Cc1ccc(N(c2ccc(C)cc2)c2ccc3c4cccc5c(N(c6ccc(C)cc6)c6ccc(C)cc6)ccc(c6cccc2c63)c54)cc1` came in with an emission maximum (in C1CCCCC1) of 546 nm; an emission maximum (in C1CCOC1) of 551 nm; an emission maximum (in CC#N) of 574 nm; an emission maximum (in Cc1ccccc1) of 548 nm; an emission maximum (in ClCCl) of 568 nm.

`C1=C(c2ccccc2)C(c2ccccc2)C(c2ccccc2)=C1` yielded an emission maximum (in C1CCOC1) of 385 nm.

`C1=C(c2ccccc2)B(c2ccccc2)Nc2c1ccc1ccccc21` came in with an emission maximum (in C1CCCCC1) of 396 nm.

The molecule `CCCCc1ccc(-n2c3c(c4c2c2c(n4-c4ccc(CCCC)cc4)-c4ccc(C(F)(F)F)cc4NB2c2ccccc2)B(c2ccccc2)Nc2cc(C(F)(F)F)ccc2-3)cc1` displayed an emission maximum (in Cc1ccccc1) of 413 nm.

`O=c1oc2cccc3c4cccc5ccc6c7ccccc7c1c(c23)c6c54` showed an emission maximum (in C1CCOC1) of 446 nm.

Values taken from the Deep4Chem optical property database.
